Molecular target: T1, UGT-mediated glucuronidation of molidustat (M1 formation) (Homo sapiens, UniProt P22309)
T1 sequence (P22309 26-533): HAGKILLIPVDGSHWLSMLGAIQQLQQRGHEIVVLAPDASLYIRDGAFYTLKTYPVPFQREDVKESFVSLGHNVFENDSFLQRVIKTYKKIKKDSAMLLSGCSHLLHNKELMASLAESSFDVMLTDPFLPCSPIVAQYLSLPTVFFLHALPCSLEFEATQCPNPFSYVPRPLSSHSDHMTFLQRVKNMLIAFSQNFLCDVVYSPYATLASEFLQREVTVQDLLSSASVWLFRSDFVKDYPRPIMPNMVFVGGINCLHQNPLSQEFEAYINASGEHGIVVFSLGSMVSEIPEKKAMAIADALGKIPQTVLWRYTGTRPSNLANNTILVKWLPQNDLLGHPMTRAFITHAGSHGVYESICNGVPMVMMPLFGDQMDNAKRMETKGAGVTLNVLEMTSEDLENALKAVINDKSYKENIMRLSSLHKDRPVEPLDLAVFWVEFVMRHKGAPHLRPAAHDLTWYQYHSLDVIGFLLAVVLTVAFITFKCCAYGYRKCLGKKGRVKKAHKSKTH
Experiment: Inhibition of M1 formation from molidustat in pooled human liver microsomes
Assay type: in vitro ADME
Conditions: human, pooled human liver microsomes, probe molidustat 5 µmol/L (formation of M1), IC50, pooled HLMs 0.3 mg/mL, N=1, Table 1

Row | SMILES | IC50 at 30 min
1 | Oc1cc(O)c2c(c1)O[C@H](c1cc(O)c(O)c(O)c1)[C@H](O)C2 [(‐)‐Epigallocatechin] | 5.1 µM
2 | C[C@]12CC[C@@H](O)C[C@@H]1CC[C@@H]1[C@@H]2CC[C@]2(C)C(=O)CC[C@@H]12 [Androsterone] | 44 µM
3 | COc1ccc(CCN2CCC(Nc3nc4ccccc4n3Cc3ccc(F)cc3)CC2)cc1 [Astemizole] | 23.5 µM
4 | CC(C)=CCC/C(C)=C/COc1c2ccoc2cc2oc(=O)ccc12 [Bergamottin] | 14.8 µM
5 | C=CC1=C(C)/C(=C/c2[nH]c(Cc3[nH]c(/C=C4\NC(=O)C(C)=C4C=C)c(C)c3CCC(=O)O)c(CCC(=O)O)c2C)NC1=O [Bilirubin] | 1.5 µM
6 | COc1ccccc1OCCNCC(O)COc1cccc2[nH]c3ccccc3c12 (centres unmarked) [Carvedilol] | 2.9 µM
7 | Cc1ccc(-c2cc(C(F)(F)F)nn2-c2ccc(S(N)(=O)=O)cc2)cc1 [Celecoxib] | 10.6 µM
8 | COc1cc(N)c(Cl)cc1C(=O)NC1CCN(CCCOc2ccc(F)cc2)CC1OC (centres unmarked) [Cisapride] | 4.1 µM
9 | Clc1ccccc1C(c1ccccc1)(c1ccccc1)n1ccnc1 [Clotrimazole] | 10.2 µM
10 | COc1cc(/C=C/C(=O)CC(=O)/C=C/c2ccc(O)c(OC)c2)ccc1O [Curcumin] | 2.2 µM
11 | O=c1c(-c2ccc(O)cc2)coc2cc(O)ccc12 [Daidzein] | 6.8 µM
12 | Cc1nc(Nc2ncc(C(=O)Nc3c(C)cccc3Cl)s2)cc(N2CCN(CCO)CC2)n1 [Dasatinib] | 1.4 µM
13 | O=C(O)Cc1ccccc1Nc1c(Cl)cccc1Cl [Diclofenac] | 38.2 µM
14 | O=C(O)c1cc(-c2ccc(F)cc2F)ccc1O [Diflunisal] | 75.6 µM
15 | COc1cccc2c1C(=O)c1c(O)c3c(c(O)c1C2=O)C[C@@](O)(C(=O)CO)C[C@@H]3O[C@H]1C[C@H](N)[C@H](O)[C@H](C)O1 [Doxorubicin] | 40.4 µM
16 | O=C1Nc2ccc(Cl)cc2[C@@](C#CC2CC2)(C(F)(F)F)O1 [Efavirenz] | 8 µM
17 | CO[C@H]1C[C@@H]2CC[C@@H](C)[C@@](O)(O2)C(=O)C(=O)N2CCCC[C@H]2C(=O)O[C@H]([C@H](C)C[C@@H]2CC[C@@H](OCCO)[C@H](OC)C2)CC(=O)[C@H](C)/C=C(\C)[C@@H](O)[C@@H](OC)C(=O)[C@H](C)C[C@H](C)/C=C/C=C/C=C/1C [Everolimus] | 4.5 µM
18 | Cc1nc(-c2ccc(OCC(C)C)c(C#N)c2)sc1C(=O)O [Febuxostat] | 7.2 µM
19 | COc1cc2ncnc(Nc3ccc(F)c(Cl)c3)c2cc1OCCCN1CCOCC1 [Gefitinib] | 1.8 µM
20 | O=c1c(-c2ccc(O)cc2)coc2cc(O)cc(O)c12 [Genistein] | 2.3 µM
21 | COc1ccc(Cl)cc1C(=O)NCCc1ccc(S(=O)(=O)NC(=O)NC2CCCCC2)cc1 [Glibenclamide] | 6.3 µM
22 | CC(C)(C)NC(=O)[C@@H]1CN(Cc2cccnc2)CCN1C[C@@H](O)C[C@@H](Cc1ccccc1)C(=O)N[C@H]1c2ccccc2C[C@H]1O [Indinavir] | 3 µM
23 | CCC(C)n1ncn(-c2ccc(N3CCN(c4ccc(OCC5COC(Cn6cncn6)(c6ccc(Cl)cc6Cl)O5)cc4)CC3)cc2)c1=O (centres unmarked) [Itraconazole] | 1.2 µM
24 | CC(=O)N1CCN(c2ccc(OCC3COC(Cn4ccnc4)(c4ccc(Cl)cc4Cl)O3)cc2)CC1 (centres unmarked) [Ketoconazole] | 6.1 µM
25 | Cc1c(OCC(F)(F)F)ccnc1C[S+]([O-])c1nc2ccccc2[nH]1 (centres unmarked) [Lansoprazole] | 36.8 µM
26 | CS(=O)(=O)CCNCc1ccc(-c2ccc3ncnc(Nc4ccc(OCc5cccc(F)c5)c(Cl)c4)c3c2)o1 [Lapatinib] | 2.5 µM
27 | Cc1cccc(C)c1OCC(=O)N[C@@H](Cc1ccccc1)[C@@H](O)C[C@H](Cc1ccccc1)NC(=O)[C@H](C(C)C)N1CCCNC1=O [Lopinavir] | 1.3 µM
28 | CC[C@H](C)C(=O)O[C@H]1C[C@@H](C)C=C2C=C[C@H](C)[C@H](CC[C@@H]3C[C@@H](O)CC(=O)O3)[C@H]21 [Lovastatin] | 10.5 µM
29 | CC[C@H](C)C(=O)O[C@H]1CCC=C2C=C[C@H](C)[C@H](CC[C@@H]3C[C@@H](O)CC(=O)O3)[C@H]21 [Mevastatin] | 13.2 µM
